Experimental data from PMC7429951 (Journal of Medicinal Chemistry, 2020).
Where two headings read alike, the source gives them in different places.

How the values were obtained:
[1] = target: ColH; conditions: literature inhibitor; cited from earlier work
[2] = in vitro; conditions: human, HepG2 cells (hepatocellular carcinoma)
[3] = in vitro; conditions: human, HEK293 cells (embryonal kidney)
[4] = in vitro; conditions: human, A549 cells (lung carcinoma)
[5] = target: peptidase domain of ColH (ColH-PD) (Hathewaya histolytica, UniProt Q46085); assay: biochemical; parameters: species or system Clostridium histolyticum; conditions: for inhibition at 1 µM: read-out: ColH-PD % inhibition @ 1 μM
[6] = target: T1, LasB (Pseudomonas aeruginosa, UniProt Q02RJ6); assay: biochemical; conditions: LasB IC50, FRET-based assay
[7] = target: T1, LasB
[8] = test system: P. aeruginosa strain PA14; assay: Bacterial growth inhibition assay (MIC) P. aeruginosa; type: cell-based, Pseudomonas aeruginosa
[9] = target: collagenase unit of ColG (ColG-CU) (Hathewaya histolytica, UniProt Q9X721); assay: biochemical; parameters: species or system C. histolyticum; conditions: read-out: ColG-CU % inhibition @ 100 μM
[10] = target: peptidase domain of ColT (ColT-PD) (Clostridium tetani, UniProt Q899Y1); assay: biochemical; parameters: species or system C. tetani; conditions: read-out: ColT-PD % inhibition @ 100 μM
[11] = target: T2, collagenase unit of ColQ1 (ColQ1-CU) (Bacillus cereus, UniProt B9J3S4); assay: biochemical; parameters: species or system B. cereus strain Q1; conditions: read-out: ColQ1-CU % inhibition @ 100 μM
T2 construct: the collagenase unit of ColQ1 (ColQ1-CU) from B. cereus strain Q1
T2 sequence (B9J3S4 94-765 limits assumed): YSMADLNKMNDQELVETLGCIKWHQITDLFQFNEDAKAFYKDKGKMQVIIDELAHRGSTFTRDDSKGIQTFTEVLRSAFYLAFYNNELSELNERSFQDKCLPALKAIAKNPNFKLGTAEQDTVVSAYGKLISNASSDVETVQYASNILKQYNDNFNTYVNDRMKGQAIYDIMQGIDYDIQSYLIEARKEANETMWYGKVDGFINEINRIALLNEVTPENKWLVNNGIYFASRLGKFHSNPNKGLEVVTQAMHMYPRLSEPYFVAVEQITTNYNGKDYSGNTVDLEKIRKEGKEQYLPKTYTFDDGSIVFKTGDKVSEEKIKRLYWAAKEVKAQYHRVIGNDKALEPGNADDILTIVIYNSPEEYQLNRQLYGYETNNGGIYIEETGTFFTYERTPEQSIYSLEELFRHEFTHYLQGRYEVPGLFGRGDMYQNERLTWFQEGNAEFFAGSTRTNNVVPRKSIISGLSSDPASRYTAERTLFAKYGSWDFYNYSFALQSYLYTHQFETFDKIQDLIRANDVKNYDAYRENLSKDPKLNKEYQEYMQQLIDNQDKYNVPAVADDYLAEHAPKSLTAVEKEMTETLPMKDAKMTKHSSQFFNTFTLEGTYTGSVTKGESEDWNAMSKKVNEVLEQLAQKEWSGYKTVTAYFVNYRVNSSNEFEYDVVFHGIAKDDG

T1 sequence (Q02RJ6 198-498): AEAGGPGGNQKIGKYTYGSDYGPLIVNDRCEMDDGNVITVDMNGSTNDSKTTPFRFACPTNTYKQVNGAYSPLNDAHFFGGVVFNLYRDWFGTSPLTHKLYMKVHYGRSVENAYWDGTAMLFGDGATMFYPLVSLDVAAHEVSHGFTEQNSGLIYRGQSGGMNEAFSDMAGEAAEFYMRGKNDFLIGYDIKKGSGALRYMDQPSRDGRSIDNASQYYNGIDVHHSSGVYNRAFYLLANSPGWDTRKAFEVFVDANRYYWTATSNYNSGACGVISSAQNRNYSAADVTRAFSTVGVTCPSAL
Sequence of peptidase domain of ColH (ColH-PD) (Q46085 331-721 limits assumed): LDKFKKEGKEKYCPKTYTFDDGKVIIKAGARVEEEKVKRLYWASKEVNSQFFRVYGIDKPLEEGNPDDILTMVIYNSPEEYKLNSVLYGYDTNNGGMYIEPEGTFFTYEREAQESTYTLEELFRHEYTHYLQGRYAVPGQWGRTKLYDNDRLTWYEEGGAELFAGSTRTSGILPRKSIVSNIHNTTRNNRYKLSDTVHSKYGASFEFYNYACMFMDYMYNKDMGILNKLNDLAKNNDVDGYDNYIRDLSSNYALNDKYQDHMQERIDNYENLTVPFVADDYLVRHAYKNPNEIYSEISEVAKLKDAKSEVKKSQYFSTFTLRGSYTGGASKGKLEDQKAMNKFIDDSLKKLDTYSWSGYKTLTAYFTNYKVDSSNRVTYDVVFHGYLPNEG
Sequence of peptidase domain of ColT (ColT-PD) (Q899Y1 340-731 limits assumed): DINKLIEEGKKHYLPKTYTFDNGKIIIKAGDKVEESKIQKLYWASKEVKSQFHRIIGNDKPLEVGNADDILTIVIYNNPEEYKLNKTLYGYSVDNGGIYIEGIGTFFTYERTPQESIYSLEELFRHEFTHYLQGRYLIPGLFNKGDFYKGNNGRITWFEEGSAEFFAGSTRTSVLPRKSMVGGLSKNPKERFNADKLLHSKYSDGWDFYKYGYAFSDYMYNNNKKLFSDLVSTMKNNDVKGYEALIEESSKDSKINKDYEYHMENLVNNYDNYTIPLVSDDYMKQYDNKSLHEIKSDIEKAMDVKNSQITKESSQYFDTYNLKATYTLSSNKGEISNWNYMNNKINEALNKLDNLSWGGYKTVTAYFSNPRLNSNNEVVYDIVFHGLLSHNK
Sequence of collagenase unit of ColG (ColG-CU) (Q9X721 111-786): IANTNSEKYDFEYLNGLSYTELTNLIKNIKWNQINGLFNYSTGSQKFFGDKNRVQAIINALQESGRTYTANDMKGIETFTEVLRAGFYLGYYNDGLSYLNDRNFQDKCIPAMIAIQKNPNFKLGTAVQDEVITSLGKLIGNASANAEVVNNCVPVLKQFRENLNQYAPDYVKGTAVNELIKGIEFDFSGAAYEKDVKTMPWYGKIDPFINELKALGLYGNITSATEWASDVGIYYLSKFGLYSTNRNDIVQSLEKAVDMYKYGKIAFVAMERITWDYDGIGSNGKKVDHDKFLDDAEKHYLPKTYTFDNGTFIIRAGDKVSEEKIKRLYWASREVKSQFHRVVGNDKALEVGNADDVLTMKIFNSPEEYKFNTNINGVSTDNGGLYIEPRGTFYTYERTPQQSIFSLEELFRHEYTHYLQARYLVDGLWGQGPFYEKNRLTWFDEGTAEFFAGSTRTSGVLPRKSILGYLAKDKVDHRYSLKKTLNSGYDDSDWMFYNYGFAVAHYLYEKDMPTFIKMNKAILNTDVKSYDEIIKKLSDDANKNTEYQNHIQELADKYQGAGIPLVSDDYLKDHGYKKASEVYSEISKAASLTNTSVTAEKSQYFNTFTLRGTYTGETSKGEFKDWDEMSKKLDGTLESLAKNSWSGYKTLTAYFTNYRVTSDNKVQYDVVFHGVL

SMILES | inhibition at 1 µM [5] [%] | IC50 [6] [µM] | other results
CC(C(=O)NO)N(Cc1ccccc1[N+](=O)[O-])S(=O)(=O)c1c(F)c(F)c(F)c(F)c1F (centres unmarked) [Compound 3] |  |  | Ki [1]: 0.005 µM
CC(NC(=O)C(Cc1ccccc1)NC(=O)NS(=O)(=O)c1ccc(F)cc1)C(=O)Nc1nnc(S)s1 (centres unmarked) [Compound 4] |  |  | Ki [1]: 0.2 µM
CC(=O)c1ccc(NC(=O)CS)cc1 [Compound 6, reference compound] |  |  | IC50 [2]: > 100 µM; IC50 [3]: 100 µM; IC50 [4]: > 100 µM
O=C1CC(S)C(=O)N1c1ccccc1 (centres unmarked) [Compound 7] | 8 ± 2 | 44.2 ± 2.3 | 
Cc1ccc(N2C(=O)CC(S)C2=O)cc1 (centres unmarked) [Compound 8] | 34 | 50.6 ± 1.6 | 
Cc1ccc(N2C(=O)CC(S)C2=O)cc1C (centres unmarked) [Compound 9] | 7 ± 2 | 29.4 ± 0.9 | difference in LasB activity between 9 and 22 ([7]; ratio of IC50 values, 9 more active): 5 fold
O=C1CC(S)C(=O)N1c1ccccc1Cl (centres unmarked) [Compound 10] | 8 ± 1 | 8.5 ± 0.4 | 
O=C1CC(S)C(=O)N1c1cccc(Cl)c1 (centres unmarked) [Compound 11] | 0 | 8.1 ± 0.5 | 
O=C1CC(S)C(=O)N1c1ccc(Cl)cc1 (centres unmarked) [Compound 12] | 33 | 16.5 ± 0.8 | 
O=C1CC(S)C(=O)N1c1c(Cl)cccc1Cl (centres unmarked) [Compound 14] | 8 ± 3 | 16 ± 3.7 | 
O=C1CC(S)C(=O)N1c1ccc(F)c(F)c1 (centres unmarked) [Compound 15] | 2 ± 2 | 3.5 ± 0.2 | MIC [8]: >100 µM; MIC ([8]; Pseudomonas aeruginosa): > 100 µM
Cc1ccc(Cl)cc1N1C(=O)CC(S)C1=O (centres unmarked) [Compound 16] | 6 ± 1 | 15 ± 0.6 | 
Cc1ccc(Cl)c(C)c1N1C(=O)CC(S)C1=O (centres unmarked) [Compound 17] | 6 ± 5 | 30.5 ± 5.4 | 
COc1ccccc1N1C(=O)CC(S)C1=O (centres unmarked) [Compound 18] | 0 | 28.9 ± 1.6 | 
COc1cccc(N2C(=O)CC(S)C2=O)c1 (centres unmarked) [Compound 19] | -3 ± 9 | 40.2 ± 1.4 | 
COc1ccc(N2C(=O)CC(S)C2=O)cc1 (centres unmarked) [Compound 20] | 74 | 112 ± 8.9 | IC50 [5]: 0.32 ± 0.05 µM; inhibition at 100 µM ([5]; read-out: ColH-PD % inhibition @ 100 μM): 95 ± 1%; inhibition at 100 µM [9]: 85 ± 3%; inhibition at 100 µM [10]: 89 ± 4%; inhibition at 100 µM [11]: 99 ± 1%

SMILES | inhibition at 1 µM [5] [%] | IC50 [6] [µM] | other results
COc1ccc(N2C(=O)CC(S)C2=O)c(OC)c1 (centres unmarked) [Compound 21] | 2 ± 13 | 45 ± 0.8 | 
COc1ccc(N2C(=O)CC(S)C2=O)cc1OC (centres unmarked) [Compound 22] | 3 ± 11 | 160 ± 10.1 | loss in LasB activity compared to 13 ([7]; ratio of IC50 values): 47 fold
O=C1CC(S)C(=O)N1c1ccc(OC(F)(F)F)c(Cl)c1 (centres unmarked) [Compound 23] | 18 ± 12 | 55.2 ± 4.4 | 
O=C1CC(S)C(=O)N1c1cccc([N+](=O)[O-])c1 (centres unmarked) [Compound 24] | 4 ± 4 | 22.2 ± 0.4 | 
O=C1CC(S)C(=O)N1c1cccc(-c2ccccc2)c1 (centres unmarked) [Compound 26] | 7 ± 4 | 27.6 ± 4 | fold more active on LasB than compound 7 [7]: 1.6 fold
O=C1CC(S)C(=O)N1c1ccc(-c2ccccc2)cc1 (centres unmarked) [Compound 27] | 5 ± 2 | 44.6 ± 1.1 | 
COc1ccc(N2C(=O)CC(SC(C)=O)C2=O)cc1 (centres unmarked) [Compound 28] | 24 ± 2 | > 200 | 
CC(=O)SC1CC(=O)N(c2ccc(Cl)c(Cl)c2)C1=O (centres unmarked) [Compound 29] | -1 ± 7 | > 200 | 
CC(=O)SC1CC(=O)N(c2ccc(OC(F)(F)F)c(Cl)c2)C1=O (centres unmarked) [Compound 30] | -11 ± 2 | > 200 | 
CC(=O)SCC1CC(=O)N(c2ccccc2)C1=O (centres unmarked) [Compound 40] | -15 ± 5 | > 200 | 
CC(=O)SCC1CC(=O)N(c2ccc(Cl)c(Cl)c2)C1=O (centres unmarked) [Compound 41] | -1 ± 2 | > 200 | 
CC(=O)SCC1CC(=O)N(c2ccc(C(C)=O)cc2)C1=O (centres unmarked) [Compound 42] | 2 ± 5 | > 200 | 
COc1ccc(N2C(=O)CC(CSC(C)=O)C2=O)cc1 (centres unmarked) [Compound 43] | 4 ± 6 | > 200 | 
O=C1CC(CS)C(=O)N1c1ccc(Cl)c(Cl)c1 (centres unmarked) [Compound 50] | 2 ± 3 | 5.4 ± 0.7 | MIC [8]: >100 µM; MIC ([8]; Pseudomonas aeruginosa): > 100 µM
O=C1CC(CS)C(=O)N1c1ccc(F)c(F)c1 (centres unmarked) [Compound 51] | 2 ± 1 | 10.1 ± 1.4 | MIC [8]: >100 µM; MIC ([8]; Pseudomonas aeruginosa): > 100 µM
CC(=O)c1ccc(N2C(=O)CC(CS)C2=O)cc1 (centres unmarked) [Compound 52] | 8 ± 3 | > 200 | 
